Measurements taken from US5214053A, “Thiourea derivatives and antimicrobial agent and antiulcer agent containing the same” (Terumo Kabushiki Kaisha, priority 1991, dated 1993).
In brackets after ≈: the same amount, converted by molar mass. Where two headings read alike, the source gives them in different places.

Tests used:
[1] = system: Helicobacter pylori; test: Antimicrobial activity against Helicobacter pylori (MIC); type: cell-based, Helicobacter pylori strain NCTC 11916
Procedure: Antimicrobial Activity Against Helicobacter Pylori
Antimicorbial activity of the thiourea derivatives according to the invention against Helicobacter pylori (or Campylobacter pylori) was evaluated by employing strain NCTC 11916 as a Helicobacter test organism and determining MIC (minimum inhibitory concentration) of the thiourea derivative against Helicobacter pylori.
The Helicobacter pylori was pre-incubated in a plate medium for 3-5 days. […] These antibiotics were contained for inhibition of the growth of microorganisms with than Helicobacter pylori.
The Helicobacter pylori pre-incubated under slightly aerobic conditions (an O2 concentration of about 5%) at 37° C. for 3-5 days was suspended in a physiological saline solution in a concentration of approximately 10^8 organisms/ml. Approximately 10-20 μl of the suspension was inoculated on a medium for MIC measurement in cross streaks. […] The DMSO solution was formed by the twofold dilution method using sterilized distilled water. As in the pre-incubation, the Helicobacter pylori was cultured under slightly aerobic conditions at 37° C. for 3-5 days. After completion of the culture, growth of the microorganisms on the streaks was visually determined. […] The MIC of cemetidine, an antagonist to histamine was also measured for comparison.

[2] = system: ethanol peptic ulcer; test: Inhibitory action against ethanol peptic ulcer; type: in vivo, SD male rats; conditions: Rattus norvegicus, read-out: Inhibitory action against ethanol peptic ulcer, percent inhibition of peptic ulcer formation
Procedure: Inhibitory Action Against Ethanol Peptic Ulcer
SD male rats (weighing 200-300 g) were fasted for 24 hours before oral administration of a thiourea derivative of the invention at a dose of 32 mg/kg bodyweight. One hour later, ethanol was orally given in a volume of 0.5 ml/100 g bodyweight. One hour after administering ethanol, the rat was sacrificed with ether, and the stomach was excised and treated with formalin. Area (mm^2) of the lesions developed in the glandular stomach area was then measured. Results were expressed in sum of the lesions per animal which was referred to as peptic ulcer index.
Percent inhibition of the peptic ulcer formation (%) as shown in the table was calculated according to the same equation as mentioned above.

[3] = system: peptic ulcer induced by water immersion restrain stress; test: Inhibitory action against peptic ulcer induced by water immersion restrain stress; type: in vivo, SD male rats; conditions: Rattus norvegicus, read-out: Inhibitory action against stress peptic ulcer, percent inhibition of peptic ulcer formation
Procedure: Inhibitory Action Against Peptic Ulcer Induced By Water Immersion Restrain Stress
SD male rats (weighing 200-300 g) were fasted for 24 hours before oral administration of a thiourea derivative of the invention at a dose of 32 mg/kg bodyweight. One hour later, the animal was put in a stress cage and loaded with water immersion restraint stress in a water bath at 23° C.
Seven hours after loading with the stress, the rat was sacrificed with ether, and the stomach was excised and treated with formalin. Area (mm^2) of the lesions developed in the glandular stomach area was then measured. Results were expressed in sum of the lesions per animal which was referred to as peptic ulcer index.
Percent inhibition of the peptic ulcer formation (%) as shown in the table was calculated according to the following equation: [formula]

[4] = NCTC11916, strain NCTC 11916, Mueller-Hinton agar with horse hemolysis solution, 37° C., 3-5 days, slightly aerobic (O2 about 5%), read-out: Antimicrobial activity against Helicobacter pylori, MIC (minimum inhibitory concentration)
[5] = SD male rats, oral, 32 mg/kg, 1 hour before ethanol (0.5 ml/100 g), lesions measured 1 hour after ethanol
[6] = SD male rats, oral, 32 mg/kg, 1 hour before stress, lesions measured 7 hours after loading with the stress

SMILES | MIC [1, 4] | inhibition in vivo at 32 mg/kg [2, 5] | inhibition in vivo at 32 mg/kg [3, 6] | MIC ([1]; NCTC11916, read-out: Antimicrobial activity against Helicobacter pylori, MIC (minimum inhibitory concentration)) | inhibition in vivo at 32 mg/kg ([2]; po, 1 h) | inhibition in vivo at 32 mg/kg ([3]; po, 7 h)
CC1CCCN(Cc2cccc(OCCCNC(=O)CCCNC(=S)Nc3ccc4c(c3)OCO4)c2)C1 (stereo not drawn) [Example 4, 1-[3-[N-[3-[3((3-methylpiperidino)methyl)phenoxy]propyl]carbamoyl]propyl]-3-[(3,4-methylenedioxy)phenyl]thiourea] | 6.25 µg/mL (≈ 11.9 µM) | 71% | 77% | – | – | –
O=C(CCCNC(=S)Nc1ccc2c(c1)OCO2)NCCCOc1cccc(CN2CCCCC2)c1 [Example 1, 1-[3-[N-[3-[3(piperidinomethyl)phenoxy]propyl]carbamoyl]propyl]-3-[(3,4methylenedioxy)phenyl] thiourea] | 6.25 µg/mL (≈ 12.2 µM) | 67% | 80% | – | – | –
CCN(CC)Cc1cccc(OCCCNC(=O)CCCNC(=S)Nc2ccc3c(c2)OCO3)c1 [Example 5, 1-[3-[N-[3-[3-(diethylaminomethyl)phenoxy]propyl]carbamoyl]propyl]-3-[(3,4-methylenedioxy)phenyl]thiourea] | 12.5 µg/mL (≈ 25 µM) | 52% | 62% | – | – | –
O=C(CCCCCNC(=S)Nc1ccc2c(c1)OCO2)NCCCOc1cccc(CN2CCCCC2)c1 [Example 6] | 6.25 µg/mL (≈ 11.6 µM) | 70% | 65% | – | – | –
CNC(=NC#N)NCCSCc1nc[nH]c1C [Cemetidine, reference compound] | – | – | – | ≥ 400 µg/mL | 16% | 64%
O=C(CCCNC(=S)Nc1ccc2c(c1)OCO2)NCCCOc1cccc(CN2CCCC2)c1 [Example 3, 1-[3-[N-[3-[3-(pyrrolidinomethyl)phenoxy]propyl]carbamoyl]propyl]-3-[(3,4-methylenedioxy)phenyl]-thiourea] | 6.25 µg/mL (≈ 12.5 µM) | 61% | 68% | – | – | –
O=C(CCCNC(=S)Nc1ccc2c(c1)OCCO2)NCCCOc1cccc(CN2CCCCC2)c1 [Example 2, 1-[3-[N-[3-[3-(piperidinomethy)phenoxy]propyl]carbamoyl]propyl]-3-[(3,4-ethylenedioxy)phenyl]thiourea] | 6.25 µg/mL (≈ 11.9 µM) | 66% | 76% | – | – | –
O=C(CCCNC(=S)NCc1ccc2c(c1)OCO2)NCCCOc1cccc(CN2CCCCC2)c1 [Example 8] | 6.25 µg/mL (≈ 11.9 µM) | 78% | 82% | – | – | –
O=C(CCCNC(=S)Nc1ccc2c(c1)OCO2)NCCCOc1cc(CN2CCCCC2)ccn1 [Example 7] | 6.25 µg/mL (≈ 12.2 µM) | 63% | 78% | – | – | –
